Results published in patent publication US11142529B2 (priority 2013, dated 2021).
“Also recorded” adds a separate entry of the source. Read-outs that look alike come from different tables or passages of the source.

Assays:
[1] = system: aged-impaired (AI) rats; assay: Radial Arm Maze (RAM) behavioral task, two-hour delay (Example 107A); format: in vivo, rat; conditions: 3 mg/kg ip
Method: The effects of methyl 3,5-diphenylpyridazine-4-carboxylate on the in vivo spatial memory retention of aged-impaired (AI) rats were assessed in a Radial Arm Maze (RAM) behavioral task using vehicle control and four different dosage levels of methyl 3,5-diphenylpyridazine-4-carboxylate (0.1 mg/kg, 0.3 mg/kg, 1 mg/kg and 3 mg/kg, ip). RAM behavioral tasks were performed on eight AI rats. All five treatment conditions (vehicle and four dosage levels) were tested on all eight rats.
The RAM apparatus used consisted of eight equidistantly-spaced arms. An elevated maze arm (7 cm width×75 cm length) projected from each facet of an octagonal center platform (30 cm diameter, 51.5 cm height). Clear side walls on the arms were 10 cm high and were angled at […] to form a trough. A food well (4 cm diameter, 2 cm deep) was located at the distal end of each arm. Froot Loops™ (Kellogg Company) were used as rewards. Blocks constructed of Plexiglas™ (30 cm height×12 cm width) could be positioned to prevent entry to any arm. Numerous extra maze cues surrounding the apparatus were also provided.
The AI rats were initially subjected to a pre-training test (Chappell et al. Neuropharmacology 37: 481-487, 1998). […]

[2] = target: T1, GABAAα5 receptor (Rattus norvegicus, UniProt P18508+P19969); assay: GABAA α5 receptor occupancy with Ro 15-4513 tracer (Example 107B); format: in vivo, Long Evans rats
T1 construct: occupancy in the hippocampus (a region of high GABAAα5 receptor density); from tissue; host or cells: rat brain in vivo; hippocampus versus cerebellum
Text: (§1) Food and water were available ad libitum.

[3] = format: in vivo, Long Evans rats; conditions: i.v.
Method: as §1
For plasma exposures, blood samples were centrifuged at 14000 rpm for 16 minutes. After centrifuging, 50 ul of supernatant (plasma) from each sample was added to 200 μl of acetonitrile plus 0.1% formic acid. […] Samples were sonicated for 5 minutes in an ultrasonic water bath, followed by centrifugation for 30 minutes, at 16000 RPM. 100 ul of supernatant was removed from each sample vial and placed in a new glass auto sample vial, followed by the addition of 300 μl of sterile water (pH 6.5).

[4] = target: α5-containing GABAA R (Homo sapiens, UniProt P18507+P31644); conditions: cited from earlier work
Chain of α5-containing GABAA R (P31644 32-462): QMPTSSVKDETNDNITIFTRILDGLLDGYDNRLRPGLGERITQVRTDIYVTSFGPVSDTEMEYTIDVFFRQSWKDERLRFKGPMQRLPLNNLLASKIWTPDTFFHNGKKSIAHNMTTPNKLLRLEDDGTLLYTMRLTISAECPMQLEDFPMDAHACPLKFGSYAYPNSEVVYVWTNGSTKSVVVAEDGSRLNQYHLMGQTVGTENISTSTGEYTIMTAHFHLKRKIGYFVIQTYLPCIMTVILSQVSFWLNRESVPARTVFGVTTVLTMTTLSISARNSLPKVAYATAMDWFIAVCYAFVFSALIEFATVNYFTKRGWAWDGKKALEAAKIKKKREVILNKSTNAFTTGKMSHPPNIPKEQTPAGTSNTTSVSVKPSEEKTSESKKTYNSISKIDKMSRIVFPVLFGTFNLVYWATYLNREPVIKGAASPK
Chain of α5-containing GABAA R (P28472 26-473 partner): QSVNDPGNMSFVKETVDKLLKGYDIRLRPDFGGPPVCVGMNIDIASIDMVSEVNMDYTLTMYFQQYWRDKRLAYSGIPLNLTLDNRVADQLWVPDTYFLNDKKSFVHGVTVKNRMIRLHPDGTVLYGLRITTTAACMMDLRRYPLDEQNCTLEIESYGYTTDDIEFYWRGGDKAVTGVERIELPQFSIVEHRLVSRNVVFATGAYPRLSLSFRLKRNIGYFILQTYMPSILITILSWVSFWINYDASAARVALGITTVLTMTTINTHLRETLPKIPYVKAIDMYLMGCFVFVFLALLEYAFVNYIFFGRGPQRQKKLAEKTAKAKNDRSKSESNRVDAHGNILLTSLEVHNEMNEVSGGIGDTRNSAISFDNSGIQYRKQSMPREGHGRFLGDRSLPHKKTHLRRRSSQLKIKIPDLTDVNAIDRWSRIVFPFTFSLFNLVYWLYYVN
Chain of α5-containing GABAA R (P18507 40-475): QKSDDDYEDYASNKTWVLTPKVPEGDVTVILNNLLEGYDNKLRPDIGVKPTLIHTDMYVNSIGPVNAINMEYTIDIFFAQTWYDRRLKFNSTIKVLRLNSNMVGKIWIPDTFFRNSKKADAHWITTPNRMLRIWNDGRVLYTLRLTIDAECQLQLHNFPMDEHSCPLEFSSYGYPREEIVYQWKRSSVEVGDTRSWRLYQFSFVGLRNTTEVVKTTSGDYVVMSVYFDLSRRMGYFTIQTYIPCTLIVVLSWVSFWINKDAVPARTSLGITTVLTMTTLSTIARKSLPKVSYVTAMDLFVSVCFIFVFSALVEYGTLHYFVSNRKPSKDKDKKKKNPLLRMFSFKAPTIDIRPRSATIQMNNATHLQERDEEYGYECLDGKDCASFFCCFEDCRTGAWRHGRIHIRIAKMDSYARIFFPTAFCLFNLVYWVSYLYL

T1 sequence (P19969 32-464 limits assumed): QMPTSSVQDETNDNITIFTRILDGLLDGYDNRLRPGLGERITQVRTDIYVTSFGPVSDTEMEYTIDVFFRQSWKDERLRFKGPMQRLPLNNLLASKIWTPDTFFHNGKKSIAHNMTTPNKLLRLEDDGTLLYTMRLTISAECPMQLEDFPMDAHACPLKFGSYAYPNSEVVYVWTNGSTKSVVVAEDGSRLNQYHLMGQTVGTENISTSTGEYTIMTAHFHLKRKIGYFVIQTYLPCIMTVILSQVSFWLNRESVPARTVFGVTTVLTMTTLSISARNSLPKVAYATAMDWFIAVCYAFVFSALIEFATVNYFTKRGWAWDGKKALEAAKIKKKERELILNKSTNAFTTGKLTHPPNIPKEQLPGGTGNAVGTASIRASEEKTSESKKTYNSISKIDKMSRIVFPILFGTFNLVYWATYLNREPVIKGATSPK
T1 sequence (P18508 39-466): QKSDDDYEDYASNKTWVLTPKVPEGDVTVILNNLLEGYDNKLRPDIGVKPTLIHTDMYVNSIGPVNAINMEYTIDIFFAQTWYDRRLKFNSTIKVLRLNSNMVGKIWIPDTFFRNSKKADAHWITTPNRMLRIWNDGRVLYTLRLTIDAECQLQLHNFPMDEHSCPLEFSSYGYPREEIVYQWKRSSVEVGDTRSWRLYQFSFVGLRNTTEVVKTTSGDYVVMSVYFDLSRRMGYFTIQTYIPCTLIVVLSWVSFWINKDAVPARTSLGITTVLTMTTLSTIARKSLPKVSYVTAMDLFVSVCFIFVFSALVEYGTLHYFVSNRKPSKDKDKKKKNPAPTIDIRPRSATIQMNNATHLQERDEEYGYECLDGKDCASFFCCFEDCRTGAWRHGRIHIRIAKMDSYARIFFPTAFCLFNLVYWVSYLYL

COC(=O)c1c(-c2ccccc2)cnnc1-c1ccccc1 [methyl 3,5-diphenylpyridazine-4-carboxylate]
memory performance relative to vehicle control ([1]; t(7)=4.233, p=0.004): significantly improved memory performance
average no. of errors ± SEM in retention test ([1]; two-hour delay): 1.31±0.40
effect on Ro 15-4513 binding in hippocampus ([2]; 0.01-10 mg/kg, i.v.): blocked the binding; also recorded: dose-dependently reduced
effect on cerebellum levels of Ro 15-4513 ([2]; 0.01-10 mg/kg, i.v.): did not affect binding; also recorded: without affecting
GABAA α5 receptors occupied at exposures behaviorally active in aged-impaired rats ([2]; hippocampus, FIG. 4): about 32%
ED50 of receptor occupancy, ratio method ([2]; i.v.): 1.8 mg/kg
GABAA α5 receptor occupancy, dose dependence ([2]; rat, in vivo): dose-dependent increase
receptor occupancy at 10 mg/kg ([2]; rat, iv, 10 mg/kg): > 90%
ED50 ([2]; rat, iv, read-out: ED50 of receptor occupancy, using L-755,608 to define occupancy): 1.1 mg/kg
increase in hippocampal exposure ([3]; dose from 0.1 to 1 mg/kg): 12 fold
increase in hippocampal exposure ([3]; dose from 1 to 10 mg/kg): ~5 fold
increase in plasma exposure ([3]; dose from 1 to 10 mg/kg): 12 fold
α5 in vitro efficacy (EC20) [4]: +27
